Laboratory results published in publication PMC8206213, “An L-2-hydroxyglutarate biosensor based on specific transcriptional regulator LhgR” (Nature Communications, 2021).
Values joined by “and” are separate entries in the source; they are usually repeats but may differ in a detail not shown here. Equal values may be shown once.

Experiment: LHGFR expressed in E. coli BL21(DE3), response to exogenous L-2-HG (time course and dose-response)
Format: cell-based
Details: Fig. 5a
Description: To characterize the sensitivity and specificity of LHGFR expressed in E. coli BL21(DE3), 90 μL cell suspensions following 8 h carbon starvation were mixed with 10 μL increasing concentrations of L-2-HG or other compounds, and then added into a black 96-well plate (total 100 μL/per well), the fluorescence intensities were determined using an EnSight microplate reader (PerkinElmer, USA) and the following instrument settings: excitation at 430 nm, emission at 485 nm (mTFP) and 528 nm (Venus), time intervals of 5 min, the temperature at 37 °C, and shake at 180 rpm.

Q: Which Emission ratio (100 μM L-2-HG, 45 min) does the source give for `O=C(O)CC[C@H](O)C(=O)O` [L-2-HG, L-2-Hydroxyglutarate] here?
A: 1.032 and 1.026 and 1.029

Q: What about the Emission ratio (100 μM L-2-HG, 50 min) of the same compound?
A: 1.0383 and 1.034 and 1.036

Q: What about the Emission ratio (100 μM L-2-HG, 55 min) of the same compound?
A: 1.032 and 1.026 and 1.035

Q: What about the Emission ratio (100 μM L-2-HG, 60 min) of the same compound?
A: 1.021 and 1.025 and 1.037

Q: What about the Emission ratio (100 μM L-2-HG, 65 min) of the same compound?
A: 1.0313 and 1.027 and 1.042

Q: And the Emission ratio (100 μM L-2-HG, 70 min)?
A: 1.0328 and 1.039 and 1.045

Q: And the Emission ratio (100 μM L-2-HG, 75 min)?
A: 1.033 and 1.036 and 1.056

Q: What about the Emission ratio (100 μM L-2-HG, 80 min) of the same compound?
A: 1.038 and 1.023 and 1.047

Q: And the Emission ratio (100 μM L-2-HG, 85 min)?
A: 1.027 and 1.0315 and 1.0551

Q: And the Emission ratio (100 μM L-2-HG, 90 min)?
A: 1.039 and 1.022 and 1.053

Q: And the Emission ratio (200 μM L-2-HG, 0 min)?
A: 0.9917 and 0.9725 and 0.9805

Q: And the Emission ratio (200 μM L-2-HG, 5 min)?
A: 1.014 and 1.003 and 1.0079

Q: What about the Emission ratio (200 μM L-2-HG, 10 min) of the same compound?
A: 1.023 and 1.0171 and 1.02

Q: What about the Emission ratio (200 μM L-2-HG, 15 min) of the same compound?
A: 1.025 and 1.029 and 1.038

Q: What about the Emission ratio (200 μM L-2-HG, 20 min) of the same compound?
A: 1.048 and 1.05 and 1.039

Q: And the Emission ratio (200 μM L-2-HG, 25 min)?
A: 1.049 and 1.058 and 1.042

Q: And the Emission ratio (200 μM L-2-HG, 30 min)?
A: 1.046 and 1.049 and 1.051

Q: What about the Emission ratio (200 μM L-2-HG, 35 min) of the same compound?
A: 1.046 (2×) and 1.055

Q: And the Emission ratio (200 μM L-2-HG, 40 min)?
A: 1.05 and 1.054 and 1.06

Q: And the Emission ratio (200 μM L-2-HG, 45 min)?
A: 1.052 and 1.0481 and 1.064

Q: What about the Emission ratio (200 μM L-2-HG, 50 min) of the same compound?
A: 1.061 and 1.056 and 1.069

Q: And the Emission ratio (200 μM L-2-HG, 55 min)?
A: 1.06 and 1.0497 and 1.072

Q: And the Emission ratio (200 μM L-2-HG, 60 min)?
A: 1.062 and 1.046 and 1.073

Q: What about the Emission ratio (200 μM L-2-HG, 65 min) of the same compound?
A: 1.05 and 1.055 and 1.074

Q: What about the Emission ratio (200 μM L-2-HG, 70 min) of the same compound?
A: 1.061 and 1.042 and 1.07

Q: And the Emission ratio (200 μM L-2-HG, 75 min)?
A: 1.068 and 1.046 and 1.072

Q: What about the Emission ratio (200 μM L-2-HG, 80 min) of the same compound?
A: 1.063 and 1.037 and 1.071

Q: And the Emission ratio (200 μM L-2-HG, 85 min)?
A: 1.058 and 1.051 and 1.076

Q: What about the Emission ratio (200 μM L-2-HG, 90 min) of the same compound?
A: 1.065 and 1.04 and 1.07

Q: What about the Emission ratio (1 mM L-2-HG, 0 min) of the same compound?
A: 1.009 and 0.986 and 0.9798

Q: And the Emission ratio (1 mM L-2-HG, 5 min)?
A: 1.043 and 1.0226 and 1.019

Q: And the Emission ratio (1 mM L-2-HG, 10 min)?
A: 1.061 and 1.055 and 1.04

Q: And the Emission ratio (1 mM L-2-HG, 15 min)?
A: 1.087 and 1.082 and 1.067

Q: What about the Emission ratio (1 mM L-2-HG, 20 min) of the same compound?
A: 1.121 and 1.102 and 1.088

Q: What about the Emission ratio (1 mM L-2-HG, 25 min) of the same compound?
A: 1.134 and 1.124 and 1.105

Q: And the Emission ratio (1 mM L-2-HG, 30 min)?
A: 1.1596 and 1.147 and 1.142

Q: And the Emission ratio (1 mM L-2-HG, 35 min)?
A: 1.168 and 1.165 and 1.162

Q: What about the Emission ratio (1 mM L-2-HG, 40 min) of the same compound?
A: 1.202 and 1.191 and 1.172

Q: And the Emission ratio (1 mM L-2-HG, 45 min)?
A: 1.22 and 1.2003 and 1.196

Q: And the Emission ratio (1 mM L-2-HG, 50 min)?
A: 1.242 and 1.221 and 1.214

Q: And the Emission ratio (1 mM L-2-HG, 55 min)?
A: 1.254 and 1.245 and 1.226

Q: And the Emission ratio (1 mM L-2-HG, 60 min)?
A: 1.262 and 1.251 and 1.2291

Q: What about the Emission ratio (1 mM L-2-HG, 65 min) of the same compound?
A: 1.264 and 1.242 and 1.229

Q: What about the Emission ratio (1 mM L-2-HG, 70 min) of the same compound?
A: 1.261 and 1.241 and 1.2295

Q: What about the Emission ratio (1 mM L-2-HG, 75 min) of the same compound?
A: 1.265 and 1.246 and 1.229

Q: What about the Emission ratio (1 mM L-2-HG, 80 min) of the same compound?
A: 1.265 and 1.238 and 1.24

Q: And the Emission ratio (1 mM L-2-HG, 85 min)?
A: 1.257 and 1.244 and 1.238

Q: And the Emission ratio (1 mM L-2-HG, 90 min)?
A: 1.253 and 1.243 (2×)

Q: And the Emission ratio (2 mM L-2-HG, 0 min)?
A: 1.001 and 0.9869 and 0.9858

Q: What about the Emission ratio (2 mM L-2-HG, 5 min) of the same compound?
A: 1.042 and 1.028 and 1.0185

Q: And the Emission ratio (2 mM L-2-HG, 10 min)?
A: 1.085 and 1.067 and 1.059

Q: What about the Emission ratio (2 mM L-2-HG, 15 min) of the same compound?
A: 1.125 and 1.11 and 1.101

Q: What about the Emission ratio (2 mM L-2-HG, 20 min) of the same compound?
A: 1.179 and 1.162 and 1.146

Q: And the Emission ratio (2 mM L-2-HG, 25 min)?
A: 1.241 and 1.208 and 1.197

Q: What about the Emission ratio (2 mM L-2-HG, 30 min) of the same compound?
A: 1.288 and 1.254 and 1.257

Q: What about the Emission ratio (2 mM L-2-HG, 35 min) of the same compound?
A: 1.301 and 1.278 and 1.2733

Q: What about the Emission ratio (2 mM L-2-HG, 40 min) of the same compound?
A: 1.333 and 1.31 and 1.292

Q: What about the Emission ratio (2 mM L-2-HG, 45 min) of the same compound?
A: 1.337 and 1.329 and 1.307

Q: What about the Emission ratio (2 mM L-2-HG, 50 min) of the same compound?
A: 1.347 and 1.335 and 1.324

Q: And the Emission ratio (2 mM L-2-HG, 55 min)?
A: 1.344 and 1.327 and 1.336

Q: And the Emission ratio (2 mM L-2-HG, 60 min)?
A: 1.352 and 1.339 and 1.329

Q: What about the Emission ratio (2 mM L-2-HG, 65 min) of the same compound?
A: 1.34 and 1.338 and 1.3346

Q: And the Emission ratio (2 mM L-2-HG, 70 min)?
A: 1.362 and 1.355 and 1.346

Q: What about the Emission ratio (2 mM L-2-HG, 75 min) of the same compound?
A: 1.365 and 1.3372 and 1.347

Q: What about the Emission ratio (2 mM L-2-HG, 80 min) of the same compound?
A: 1.351 and 1.344 (2×)

Q: And the Emission ratio (2 mM L-2-HG, 85 min)?
A: 1.353 and 1.367 and 1.357

Q: What about the Emission ratio (2 mM L-2-HG, 90 min) of the same compound?
A: 1.364 and 1.351 and 1.361

Q: And the Emission ratio (10 mM L-2-HG, 0 min)?
A: 0.9626 and 0.9634 and 0.9687

Q: What about the Emission ratio (10 mM L-2-HG, 5 min) of the same compound?
A: 1.087 and 1.079 and 1.06

Q: What about the Emission ratio (10 mM L-2-HG, 10 min) of the same compound?
A: 1.2277 and 1.2165 and 1.18

Q: And the Emission ratio (10 mM L-2-HG, 15 min)?
A: 1.322 and 1.305 and 1.285

Q: And the Emission ratio (10 mM L-2-HG, 20 min)?
A: 1.375 and 1.367 and 1.334

Q: What about the Emission ratio (10 mM L-2-HG, 25 min) of the same compound?
A: 1.391 and 1.39 and 1.353

Q: And the Emission ratio (10 mM L-2-HG, 30 min)?
A: 1.418 and 1.395 and 1.38

Q: And the Emission ratio (10 mM L-2-HG, 35 min)?
A: 1.427 and 1.411 and 1.3928

Q: What about the Emission ratio (10 mM L-2-HG, 40 min) of the same compound?
A: 1.439 and 1.431 and 1.3904

Q: And the Emission ratio (10 mM L-2-HG, 45 min)?
A: 1.426 and 1.425 and 1.4013

Q: And the Emission ratio (10 mM L-2-HG, 50 min)?
A: 1.427 and 1.438 and 1.392

Q: And the Emission ratio (10 mM L-2-HG, 55 min)?
A: 1.431 (2×) and 1.402

Q: What about the Emission ratio (10 mM L-2-HG, 60 min) of the same compound?
A: 1.432 and 1.435 and 1.413

Q: What about the Emission ratio (10 mM L-2-HG, 65 min) of the same compound?
A: 1.425 and 1.426 and 1.404

Q: What about the Emission ratio (10 mM L-2-HG, 70 min) of the same compound?
A: 1.4381 and 1.438 and 1.417

Q: What about the Emission ratio (10 mM L-2-HG, 75 min) of the same compound?
A: 1.426 and 1.4264 and 1.415

Q: And the Emission ratio (10 mM L-2-HG, 80 min)?
A: 1.4478 and 1.43 and 1.416

Q: And the Emission ratio (10 mM L-2-HG, 85 min)?
A: 1.446 and 1.432 and 1.415

Q: And the Emission ratio (10 mM L-2-HG, 90 min)?
A: 1.432 and 1.427 and 1.418
